pIC50: −log10 of the molar value.

T1 sequence (O14744 2-637 limits assumed): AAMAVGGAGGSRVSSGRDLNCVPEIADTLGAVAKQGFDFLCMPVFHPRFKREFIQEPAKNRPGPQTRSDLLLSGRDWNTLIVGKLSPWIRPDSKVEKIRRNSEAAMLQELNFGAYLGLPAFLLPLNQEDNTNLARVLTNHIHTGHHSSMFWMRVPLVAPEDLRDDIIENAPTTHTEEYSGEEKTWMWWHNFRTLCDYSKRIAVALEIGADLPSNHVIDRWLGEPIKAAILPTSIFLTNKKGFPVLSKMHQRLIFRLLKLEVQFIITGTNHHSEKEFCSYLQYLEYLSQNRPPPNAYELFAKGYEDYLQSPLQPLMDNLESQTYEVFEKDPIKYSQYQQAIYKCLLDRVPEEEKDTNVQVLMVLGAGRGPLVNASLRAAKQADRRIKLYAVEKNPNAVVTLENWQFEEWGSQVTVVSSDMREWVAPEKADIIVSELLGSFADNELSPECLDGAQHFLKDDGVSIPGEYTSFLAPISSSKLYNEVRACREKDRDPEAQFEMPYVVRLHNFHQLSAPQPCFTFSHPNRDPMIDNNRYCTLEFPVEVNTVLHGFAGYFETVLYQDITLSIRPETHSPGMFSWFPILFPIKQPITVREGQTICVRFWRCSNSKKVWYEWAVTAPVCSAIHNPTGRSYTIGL
T1 sequence (Q9BQA1 2-342 partner limits assumed): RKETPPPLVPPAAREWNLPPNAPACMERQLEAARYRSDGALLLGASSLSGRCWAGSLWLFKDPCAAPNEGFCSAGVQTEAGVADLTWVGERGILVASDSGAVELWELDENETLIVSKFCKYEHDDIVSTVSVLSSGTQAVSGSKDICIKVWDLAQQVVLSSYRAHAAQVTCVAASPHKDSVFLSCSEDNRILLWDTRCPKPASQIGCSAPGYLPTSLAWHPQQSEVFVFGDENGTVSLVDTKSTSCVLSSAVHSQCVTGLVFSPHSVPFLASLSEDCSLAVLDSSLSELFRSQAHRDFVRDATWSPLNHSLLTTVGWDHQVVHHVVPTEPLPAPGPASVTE

The experiment has as its target T1, PRMT5-MEP50 enzyme complex (Homo sapiens, UniProt O14744).
T1 construct: purchased BPS Bioscience (USA) 51045
Description: In vitro PRMT5 enzyme activity assay (methylation of histone H4 arginine H4R3, ELISA absorbance at 450 nm). It is filed as biochemical. To be noted: S-adenosylmethionine, histone H4 peptide, 2 hours at room temperature, 8 points 10 μM to 0.128 nM. On the procedure: Method for Measuring Enzyme Activity
In vitro assay: PRMT5-MEP50 enzyme complex, cofactor S-adenosylmethionine (SAM) and histone H4 peptide were reacted in vitro, and methylation of arginine (H4R3) —which is the third amino acid of histone H4—was measured in order to measure the enzyme activity of PRMT5.
Reagents: PRMT5-MEP50 enzyme complex (Catalog No. 51045), blocking buffer (52100-B), histone methyltransferase reaction buffer 2 (4×HMT assay buffer 2, Catalog No. 52170), and primary antibody (primary antibody 4-3, Catalog No. 52150) were purchased from BPS Bioscience (USA). The histone H4 peptide (1-20 amino acids) was custom made by Komabiotech (Korea) and used. S-adenosylmethionine was purchased from NEB (New England Biolabs, USA, Catalog No. B9003S). Plates for coating histone H4 peptide, washing buffer and color development reagent were purchased from the following vendors: Plate (Immobilizer™-Amino Plate, NUNC, Denmark, Catalog No. 436023), carbonate-bicarbonate buffer (Sigma-Aldrich, USA, Catalog No. C3041), washing buffer (10×TBST, Biosesang, Korea, Catalog No. T2005), TMB ELISA substrate (Abcam, UK, Catalog No. ab210902), horseradish peroxidase (HRP)-conjugated antibody (Abcam, UK, Catalog No. ab6721).
Experimental procedure: The histone H4 peptide was diluted with carbonate-bicarbonate buffer and prepared to 100 μg/mL, and then dispensed onto the plate per 100 μL and reacted at 37° C. for 1 hour. PRMT5-MEP50 enzyme complex and S-adenosylmethionine were diluted with histone methyltransferase reaction buffer to prepare 5 μg/mL and 2 μM, respectively, and then 20 μL of PRMT5-MEP50 enzyme complex and 25 μL of S-adenosylmethionine were dispensed onto the plate prepared above. 5 μL of the compound diluted with 10% dimethyl sulfoxide solution was added thereto and reacted at room temperature for 2 hours (final volume=50 μL). The concentration of the compound was diluted 1:5 from 10 μM until the lowest concentration of 0.128 nM, and 8 points were used for the test. After preparing the primary antibody by diluting 1:2000 with blocking buffer, 100 μL was added to the plate and reacted at room temperature for 1 hour. After preparing horseradish peroxidase-conjugated antibody by diluting 1:10,000 with blocking buffer, 100 μL was added to the plate and reacted at room temperature for 1 hour. 100 μL of TMB substrate was added and reacted for 3 minutes at room temperature, and 100 μL of 1 N sulfuric acid was then added to terminate the reaction. Then, the absorbance at 450 nm was measured to calculate the IC50 value of the compound. (+++: 1 to 100 nM, ++: greater than 100 to 1,000 nM, +: greater than 1,000 to 10,000 nM)
Background: ELISA stands for enzyme-linked immunosorbent assay.
The pIC50 is the IC50 on a negative log10 scale, so that one unit is a factor of ten. The low end stands for a large IC50, the high end for a small IC50. In turn, `CC(C)(C)OC(=O)N1CC=C(c2ccc3c(c2)CCN(C[C@H](O)CN2CCc4ccccc4C2)C3=O)CC1` [Example 56, tert-butyl 4-[2-[(2R)-3-(3,4-dihydro-1H-isoquinolin-2-yl)-2-hydroxy-propyl]-1-oxo-3,4-dihydroisoquinolin-6-yl]-3,6-dihydro-2H-pyridine-1-carboxylate] showed a pIC50 of 7.00 to 9.00.

Regarding `O=C1c2ccc(C3=CCNCC3)cc2CCN1C[C@H](O)CN1CCc2ccccc2C1` [Example 57, 2-[(2R)-3-(3,4-dihydro-1H-isoquinolin-2-yl)-2-hydroxy-propyl]-6-(1,2,3,6-tetrahydropyridin-4-yl)-3,4-dihydroisoquinolin-1-one], the pIC50 was 7.00 to 9.00. With `O=C1c2ccc(N3CCNCC3)cc2CCN1C[C@H](O)CN1CCc2ccccc2C1` [Example 58, 2-[(2R)-3-(3,4-dihydro-1H-isoquinolin-2-yl)-2-hydroxy-propyl]-6-piperazin-1-yl-3,4-dihydroisoquinolin-1-one], the pIC50 was 7.00 to 9.00.

As for `CS(=O)(=O)N1CCN(c2ccc3c(c2)CCN(C[C@H](O)CN2CCc4ccccc4C2)C3=O)CC1` [Example 59, 2-[(2R)-3-(3,4-dihydro-1H-isoquinolin-2-yl)-2-hydroxy-propyl]-6-(4-methylsulfonylpiperazin-1-yl)-3,4-dihydroisoquinolin-1-one], the pIC50 is 6.00 to 7.00.

Turning to `COC(=O)N1CCN(c2ccc3c(c2)CCN(C[C@H](O)CN2CCc4ccccc4C2)C3=O)CC1` [Example 60, methyl 4-[2-[(2R)-3-(3,4-dihydro-1H-isoquinolin-2-yl)-2-hydroxy-propyl]-1-oxo-3,4-dihydroisoquinolin-6-yl]piperazine-1-carboxylate], the negative-log IC50 (pIC50) is 6.00 to 7.00. `CC(=O)N1CC=C(c2ccc3c(c2)CCN(C[C@H](O)CN2CCc4ccccc4C2)C3=O)CC1` [Example 61, 6-(1-acetyl-3,6-dihydro-2H-pyridin-4-yl)-2-[(2R)-3-(3,4-dihydro-1H-isoquinolin-2-yl)-2-hydroxy-propyl]-3,4-dihydroisoquinolin-1-one] gave a pIC50 of 7.00 to 9.00. With `O=C1c2ccc(N3CCN(C(=O)C(F)(F)F)CC3)cc2CCN1C[C@H](O)CN1CCc2ccccc2C1` [Example 62, 2-[(2R)-3-(3,4-dihydro-1H-isoquinolin-2-yl)-2-hydroxy-propyl]-6-[4-(2,2,2-trifluoroacetyl)piperazin-1-yl]-3,4-dihydroisoquinolin-1-one] the figure was 7.00 to 9.00; with `CC(C)(C)OC(=O)N1CCC(c2ccc3c(c2)CCN(C[C@H](O)CN2CCc4ccccc4C2)C3=O)CC1` [Example 63, tert-butyl 4-[2-[(2R)-3-(3,4-dihydro-1H-isoquinolin-2-yl)-2-hydroxy-propyl]-1-oxo-3,4-dihydroisoquinolin-6-yl]piperidine-1-carboxylate], 6.00 to 7.00. With `CC(C)N1CCN(c2ccc3c(c2)CCN(C[C@H](O)CN2CCc4ccccc4C2)C3=O)CC1` [Example 64, [(2R)-3-(3,4-dihydro-1H-isoquinolin-2-yl)-2-hydroxy-propyl]-6-(4-isopropylpiperazin-1-yl)-3,4-dihydroisoquinolin-1-one] the figure was 7.00 to 9.00; with `CCOC(=O)N1CCN(c2ccc3c(c2)CCN(C[C@H](O)CN2CCc4ccccc4C2)C3=O)CC1` [Example 65, ethyl 4-[2-[(2R)-3-(3,4-dihydro-1H-isoquinolin-2-yl)-2-hydroxy-propyl]-1-oxo-3,4-dihydroisoquinolin-6-yl]piperazine-1-carboxylate], 5.00 to 6.00. With `COC1CCN(Cc2ccc3c(c2)CCN(C[C@H](O)CN2CCc4ccccc4C2)C3=O)CC1` [Example 66, 2-[(2R)-3-(3,4-dihydro-1H-isoquinolin-2-yl)-2-hydroxy-propyl]-6-[(4-methoxy-1-piperidyl)methyl]-3,4-dihydroisoquinolin-1-one] the figure was 7.00 to 9.00; with `CC(=O)N1CCC(c2ccc3c(c2)CCN(C[C@H](O)CN2CCc4ccccc4C2)C3=O)CC1` [Example 67, 6-(1-acetyl-4-piperidyl)-2-[(2R)-3-(3,4-dihydro-1H-isoquinolin-2-yl)-2-hydroxy-propyl]-3,4-dihydroisoquinolin-1-one], 5.00 to 6.00.

The compound `CC(=O)N1CCN(Cc2ccc3c(c2)CCN(C[C@H](O)CN2CCc4ccccc4C2)C3=O)CC1` [Example 68, 6-[(4-acetylpiperazin-1-yl)methyl]-2-[(2R)-3-(3,4-dihydro-1H-isoquinolin-2-yl)-2-hydroxy-propyl]-3,4-dihydroisoquinolin-1-one] gave a pIC50 of 7.00 to 9.00.

`CCC(=O)N1CCN(c2ccc3c(c2)CCN(C[C@H](O)CN2CCc4ccccc4C2)C3=O)CC1` [Example 69, 2-[(2R)-3-(3,4-dihydro-1H-isoquinolin-2-yl)-2-hydroxy-propyl]-6-(4-propanoylpiperazin-1-yl)-3,4-dihydroisoquinolin-1-one] had a pIC50 of 6.00 to 7.00. With `CC(C)C(=O)N1CCN(c2ccc3c(c2)CCN(C[C@H](O)CN2CCc4ccccc4C2)C3=O)CC1` [Example 70, 2-[(2R)-3-(3,4-dihydro-1H-isoquinolin-2-yl)-2-hydroxy-propyl]-6-[4-(2-methylpropanoyl)piperazin-1-yl]-3,4-dihydroisoquinolin-1-one] the figure was 7.00 to 9.00; with `CC(C)(C)C(=O)N1CCN(c2ccc3c(c2)CCN(C[C@H](O)CN2CCc4ccccc4C2)C3=O)CC1` [Example 71, 2-[(2R)-3-(3,4-dihydro-1H-isoquinolin-2-yl)-2-hydroxy-propyl]-6-[4-(2,2-dimethylpropanoyl)piperazin-1-yl]-3,4-dihydroisoquinolin-1-one], 7.00 to 9.00; with `CC(C)(C)OC(=O)N1CC2CC1CN2c1ccc2c(c1)CCN(C[C@H](O)CN1CCc3ccccc3C1)C2=O` (stereo partly drawn) [Example 72, tert-butyl 5-[2-[(2R)-3-(3,4-dihydro-1H-isoquinolin-2-yl)-2-hydroxy-propyl]-1-oxo-3,4-dihydroisoquinolin-6-yl]-2,5-diazabicyclo[2.2.1]heptane-2-carboxylate], 6.00 to 7.00. Turning to `O=C1c2ccc(N3CC4CC3CO4)cc2CCN1C[C@H](O)CN1CCc2ccccc2C1` (stereo partly drawn) [Example 73, 2-[(2R)-3-(3,4-dihydro-1H-isoquinolin-2-yl)-2-hydroxy-propyl]-6-(2-oxa-5-azabicyclo[2.2.1]heptan-5-yl)-3,4-dihydroisoquinolin-1-one], the negative logarithm of the IC50 (pIC50) was 6.00 to 7.00. Compound `O=C1c2ccc(Cl)nc2CCN1C[C@H](O)CN1CCc2ccccc2C1` [Example 75, 2-chloro-6-[(2R)-3-(3,4-dihydro-1H-isoquinolin-2-yl)-2-hydroxy-propyl]-7,8-dihydro-1,6-naphthyridin-5-one] gave a pIC50 of 6.00 to 7.00.

With `O=C1c2ccc(N3CC4CC3CN4)cc2CCN1C[C@H](O)CN1CCc2ccccc2C1` (stereo partly drawn) [Example 76, 6-(2,5-diazabicyclo[2.2.1]heptan-2-yl)-2-[(2R)-3-(3,4-dihydro-1H-isoquinolin-2-yl)-2-hydroxy-propyl]-3,4-dihydroisoquinolin-1-one], the pIC50 is 6.00 to 7.00. As for `O=C1c2ccc(NC3CCCNC3)cc2CCN1C[C@H](O)CN1CCc2ccccc2C1` (stereo partly drawn) [Example 77, 2-[(2R)-3-(3,4-dihydro-1H-isoquinolin-2-yl)-2-hydroxy-propyl]-6-(3-piperidylamino)-3,4-dihydroisoquinolin-1-one], the figure is 6.00 to 7.00.

These data come from patent US12331035B2, “Bicyclic compound and use thereof” (SK BIOPHARMACEUTICALS CO., LTD., priority 2019, dated 2025).
